Measurements published in PMC13110364, “Design, Synthesis, and Biological Evaluation of Novel Triazine‐Based Dual Histone Deacetylase/phosphatidylinositol 3‐kinase Inhibitors for Breast Cancer Therapy” (Chemmedchem, 2026).

Columns and labels:
PI3Kβ = PI3Kβ (Homo sapiens, UniProt P42338); assay: Selectivity profile, single dose 0.5 µM, PI3Kβ; type: biochemical; conditions: remaining enzyme activity; single‐dose duplicate mode at 0.5 μM; read-out: Enzyme % activity (relative to DMSO controls) at 0.5 µM, PI3Kβ
Protocol: (§1) The inhibitory profiles of 5b and 5f were evaluated against selected HDAC isoforms (HDAC1, HDAC3, HDAC4, HDAC8, and HDAC10) and PI3K isoforms (PI3Kδ, PI3Kγ, and PI3Kβ) at a fixed concentration of 0.5 µM (Table 3). […] While we explored the phenyl ring in the linker region to achieve selectivity for the HDAC6 isoform, we still observed HDAC class I inhibition. […] It is important to highlight that PI3Kδ is mainly expressed in hematopoietic system and plays roles in leukocyte signaling, T‐cell activation, and immune cell trafficking. FDA‐approved drug idelalisib is a selective PI3Kδ inhibitor in B‐cell malignancies; however, this drug is also related to disruption of the immune system, which can lead to immune manifestations, such as infections. In addition, while isoform‐selective PI3K inhibitors are well tolerated, pan‐inhibition of PI3K is less expected that compensatory mechanisms by the action of other PI3Ks can take place. Thus, a more balanced profile of PI3K inhibition can lead to an overall lack of toxicity of PI3K inhibitors.

PI3Kγ = PI3Kγ (Homo sapiens, UniProt P48736); assay: Selectivity profile, single dose 0.5 µM, PI3Kγ; type: biochemical; conditions: remaining enzyme activity; single‐dose duplicate mode at 0.5 μM; read-out: Enzyme % activity (relative to DMSO controls) at 0.5 µM, PI3Kγ
Protocol: as §1

[1] = test system: HDAC6 (acetylated α‐tubulin); assay: Western blot, acetylated α-tubulin in treated cells; type: cell-based; conditions: LY2, JIMT1, MDA‐MB‐231 cells, 24 h; seen at 3 µM, further increasing at 10 µM
Protocol: (§2) FIGURE 4 Cell‐based evaluation of compounds 5a– 5f. Dose‐dependent effects of compound treatment (5a‐5f) on breast cancer cell viability across JIMT1 (A), MDA‐MB‐231 (B), and LY2 (C). Cell‐based evaluation of HDAC and PI3K inhibition by compounds 5b and 5f by Western blot. JIMT1 cells were treated for 24 h with compounds 5b (D) and 5f (E) at the concentrations of 1, 3, and 10 µM or with vehicle control (0.1% DMSO). Protein expression levels were analyzed by western blot using antibodies against acetylated α‐tubulin, acetyl H3 (H3K9Ac and H3K14Ac), phospho‐AKT (p‐AKT), and total AKT. GAPDH served as a loading control.
(§3) To investigate if 5b and 5f were acting as multitarget inhibitors, we evaluated the modulation of HDAC6 and PI3K signaling pathways by western blot analysis (Figure 4D,E). […]
(§4) Total protein samples were extracted from treated cells using a lysis buffer containing 0.1% IGEPAL CA‐630 (I8896, Merck), 0.5% deoxycholic acid (D2510, Merck), and 0.1% SDS (L3771, Merck), freshly supplemented with protease and phosphatase inhibitor cocktail (78442, Thermo Fisher Scientific). Protein concentrations were quantified using the Pierce BCA Protein Assay Kit (23227, Thermo Fisher Scientific) according to the manufacturer's instructions. […] Chemiluminescence signals were detected using the Amersham Imager 680 Imaging System. […]

[2] = test system: PI3K pathway (phosphorylation of AKT); assay: Western blot, phospho-AKT in treated cells; type: cell-based; conditions: LY2, JIMT1, MDA‐MB‐231 cells, 24 h; seen at 10 µM
Protocol: as §2, §3, §4

Sequence of PI3Kβ (P42338 whole entry, canonical isoform): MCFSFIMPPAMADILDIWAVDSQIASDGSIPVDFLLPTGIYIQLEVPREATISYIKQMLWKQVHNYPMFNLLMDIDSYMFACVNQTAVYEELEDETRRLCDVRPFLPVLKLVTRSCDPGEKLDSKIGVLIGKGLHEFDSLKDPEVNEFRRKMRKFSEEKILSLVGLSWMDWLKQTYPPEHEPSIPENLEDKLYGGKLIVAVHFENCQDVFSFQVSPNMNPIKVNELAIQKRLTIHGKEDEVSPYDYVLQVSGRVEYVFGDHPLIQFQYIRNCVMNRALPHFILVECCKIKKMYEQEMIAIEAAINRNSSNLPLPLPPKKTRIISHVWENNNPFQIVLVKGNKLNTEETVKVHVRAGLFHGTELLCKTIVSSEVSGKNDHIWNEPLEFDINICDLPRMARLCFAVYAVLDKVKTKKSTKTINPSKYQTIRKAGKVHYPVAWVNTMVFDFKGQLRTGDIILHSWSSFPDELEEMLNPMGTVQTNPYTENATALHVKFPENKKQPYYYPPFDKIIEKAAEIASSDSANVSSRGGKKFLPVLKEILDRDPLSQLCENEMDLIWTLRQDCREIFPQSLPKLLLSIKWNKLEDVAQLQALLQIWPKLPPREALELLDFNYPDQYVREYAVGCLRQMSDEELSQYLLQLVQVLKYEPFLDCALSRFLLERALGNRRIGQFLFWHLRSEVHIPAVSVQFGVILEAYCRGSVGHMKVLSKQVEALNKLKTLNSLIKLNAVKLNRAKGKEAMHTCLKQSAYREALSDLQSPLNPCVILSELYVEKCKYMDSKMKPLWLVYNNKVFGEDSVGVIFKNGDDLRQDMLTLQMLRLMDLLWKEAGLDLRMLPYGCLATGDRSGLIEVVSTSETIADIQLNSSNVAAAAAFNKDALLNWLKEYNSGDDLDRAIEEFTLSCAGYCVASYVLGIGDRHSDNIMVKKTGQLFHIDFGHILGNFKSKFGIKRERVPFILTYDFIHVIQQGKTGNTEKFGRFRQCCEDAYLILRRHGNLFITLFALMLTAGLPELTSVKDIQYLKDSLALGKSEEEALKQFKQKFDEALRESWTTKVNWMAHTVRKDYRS
Sequence of PI3Kβ (P27986 whole entry partner, canonical isoform): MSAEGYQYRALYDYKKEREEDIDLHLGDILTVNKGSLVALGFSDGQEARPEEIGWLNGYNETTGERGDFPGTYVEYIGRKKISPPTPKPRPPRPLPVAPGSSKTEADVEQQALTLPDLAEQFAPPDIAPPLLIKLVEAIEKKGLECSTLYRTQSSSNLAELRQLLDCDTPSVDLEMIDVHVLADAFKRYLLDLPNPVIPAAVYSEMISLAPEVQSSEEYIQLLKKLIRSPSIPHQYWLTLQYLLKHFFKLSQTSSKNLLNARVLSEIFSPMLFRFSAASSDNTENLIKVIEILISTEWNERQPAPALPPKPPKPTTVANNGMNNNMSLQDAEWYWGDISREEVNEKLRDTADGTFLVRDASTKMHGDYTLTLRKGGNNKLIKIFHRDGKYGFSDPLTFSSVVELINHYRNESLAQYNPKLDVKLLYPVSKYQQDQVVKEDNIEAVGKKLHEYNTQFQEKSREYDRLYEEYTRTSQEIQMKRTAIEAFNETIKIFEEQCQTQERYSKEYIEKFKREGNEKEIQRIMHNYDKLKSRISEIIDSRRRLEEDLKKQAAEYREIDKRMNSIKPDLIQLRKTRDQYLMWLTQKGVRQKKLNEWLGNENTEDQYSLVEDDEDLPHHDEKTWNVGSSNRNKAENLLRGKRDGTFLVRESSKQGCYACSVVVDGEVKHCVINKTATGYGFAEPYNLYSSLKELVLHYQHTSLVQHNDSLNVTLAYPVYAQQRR
Sequence of PI3Kγ (P48736 whole entry): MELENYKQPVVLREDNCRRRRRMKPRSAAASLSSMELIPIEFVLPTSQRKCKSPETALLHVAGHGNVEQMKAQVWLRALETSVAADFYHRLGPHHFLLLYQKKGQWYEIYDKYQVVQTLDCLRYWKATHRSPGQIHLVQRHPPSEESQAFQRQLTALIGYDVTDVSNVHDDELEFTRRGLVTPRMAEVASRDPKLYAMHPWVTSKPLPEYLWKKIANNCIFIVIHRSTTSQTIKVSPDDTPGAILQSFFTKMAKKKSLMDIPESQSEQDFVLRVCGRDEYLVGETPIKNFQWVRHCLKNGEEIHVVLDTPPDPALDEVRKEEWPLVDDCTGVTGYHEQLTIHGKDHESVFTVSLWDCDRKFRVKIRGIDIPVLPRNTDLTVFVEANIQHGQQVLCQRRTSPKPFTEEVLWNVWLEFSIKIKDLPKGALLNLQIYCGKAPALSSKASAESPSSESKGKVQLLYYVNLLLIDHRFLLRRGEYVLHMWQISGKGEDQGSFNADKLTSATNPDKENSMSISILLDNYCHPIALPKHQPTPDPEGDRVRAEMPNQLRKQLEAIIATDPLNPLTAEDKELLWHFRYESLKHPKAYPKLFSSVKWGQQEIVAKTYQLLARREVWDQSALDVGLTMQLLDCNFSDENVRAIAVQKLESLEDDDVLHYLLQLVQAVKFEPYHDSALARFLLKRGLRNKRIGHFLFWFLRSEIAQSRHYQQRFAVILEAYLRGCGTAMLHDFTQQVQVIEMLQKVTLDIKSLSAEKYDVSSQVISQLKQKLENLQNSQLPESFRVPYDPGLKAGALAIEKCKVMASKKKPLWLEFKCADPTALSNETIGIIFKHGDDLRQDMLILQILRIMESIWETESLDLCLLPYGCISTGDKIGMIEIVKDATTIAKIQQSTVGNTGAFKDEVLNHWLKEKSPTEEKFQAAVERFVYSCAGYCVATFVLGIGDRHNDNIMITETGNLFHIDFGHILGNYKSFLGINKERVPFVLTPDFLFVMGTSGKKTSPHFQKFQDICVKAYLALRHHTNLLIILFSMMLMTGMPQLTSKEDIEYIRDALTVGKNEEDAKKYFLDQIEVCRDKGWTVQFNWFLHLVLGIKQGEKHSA

| remaining activity at 0.5 µM (PI3Kβ) [%] | remaining activity at 0.5 µM (PI3Kγ) [%] | SMILES | Acetylated α‐tubulin level, western blot [1] | Phosphorylation of AKT, western blot [2] |
| --- | --- | --- | --- | --- |
| 40.1 | 29.2 | O=C(NO)c1ccc(CNc2nc(-c3cccc(O)c3)nc(N3CCOCC3)n2)cc1 [Compound 5b, N‐Hydroxy‐4‐(((4‐(3‐Hydroxyphenyl)‐6‐Morpholino‐1,3,5‐Triazin‐2‐yl)Amino)Methyl)Benzamide] | accumulation of acetylated α‐tubulin | decreased phosphorylation of AKT |
| 86.9 | 77.7 | COc1ccc(-c2nc(NCc3ccc(C(=O)NO)cc3)nc(N3CCOCC3)n2)cn1 [Compound 5f, N‐Hydroxy‐4‐(((4‐(6‐Methoxypyridin‐3‐yl)‐6‐Morpholino‐1,3,5‐Triazin‐2‐yl)Amino)Methyl)Benzamide] | accumulation of acetylated α‐tubulin | decreased phosphorylation of AKT |
